Results taken from patent US6949250B2, “Selective algaecides for control of cyanochloronta” (The United States of America as represented by the …, priority 2002, dated 2005).

Key:
Format in all cases: in vivo
geosmin = experiment: DNA2-59-1 first pond efficacy study: geosmin levels; settings: 1 μM
Description: (§1) The method described by Schrader et al. (2000) was used to determine the potential for using the anthraquinone derivatives as selective algicides in catfish aquaculture ponds. All catfish ponds used in efficacy tests were maintained using commercial pond management practices and were located at the Thad Cochran Pond Facility, Mississippi State University, Stoneville, Miss. Anthraquinone analogs were dissolved in deionized water before application to water within the limnocorrals.
(§2) Limnocorrals in which test compound was applied to the enclosed water were randomly selected, and control (no test compound applied) limnocorrals were included in each efficacy study. […]
(§3) In the first study, application rates of 0.1 μM (37.7 μg/L), 0.3 μM ([…]), and 1.0 μM (377 μg/L) of DNA2-59-1 were tested using limnocorrals (three replicates per concentration) that were of the same type used for testing DNA1-19-1. […] Water samples were also analyzed to determine the persistence of DNA2-59-1 in the pond water, and this analysis was performed by using high-pressure liquid chromatography (HPLC) (method and results are described later).

chlorophyll a [1] = experiment: DNA2-59-1 second pond efficacy study: chlorophyll a; settings: 0.3 μM, for three days after application
Description: as §1
(§4) Limnocorrals in which test compound was applied to the enclosed water were randomly selected, and control (no test compound applied) limnocorrals were included in each efficacy study. For each sampling, two water samples (250 mL) were obtained from within each limnocorral (approximately 6-8 cm below the water surface and from opposite sides of each limnocorral) and mixed together in a 500 mL sample bottle to provide a representative sample of the water contained within the limnocorral.
(§5) In the second efficacy test with DNA2-59-1, six limnocorrals (1.53 m in diameter and 1.53 m high) were placed in a 0.1-ha earthen pond containing a heavy bloom of O. perornata. The same delay in mixing the water within the limnocorrals used in the first efficacy study was utilized. Water within three randomly selected limnocorrals received an application rate of 0.3 μM DNA2-59-1, and the other three limnocorrals were controls. […]

Oscillatoria agardhii = experiment: DNA2-59-1 third pond efficacy study: Oscillatoria agardhii abundance; settings: 0.3 μM
Description: as §1, §4
For the third efficacy test with DNA2-59-1, twelve limnocorrals (2.44 m in diameter and 1.53 m high) were placed in a 4-ha earthen pond containing a bloom of O. perornata. […]

chlorophyll a [2] = experiment: DNA2-59-1 first pond efficacy study: chlorophyll a
Description: as §1, §2, §3

Raphidiopsis brookii = experiment: DNA2-59-1 second pond efficacy study: Raphidiopsis brookii abundance; settings: 0.3 μM, within three days of application
Description: as §1, §4, §5

For `CC(C)NCc1ccc2c(c1)C(=O)c1ccccc1C2=O` [DNA2-59-1, 2-[methylamino-N-(1′-methylethyl)]-9,10-anthraquinone monophosphate], the “decrease of geosmin levels compared to controls and 0.1 and 0.3 μM (result in words)” value (geosmin) was “to a greater degree and significantly more”, the “Chlorophyll a levels (result in words)” value (chlorophyll a [1]) was “significantly lower” and the “Numbers of Oscillatoria agardhii (result in words)” value (Oscillatoria agardhii) was “significantly reduced”. The “Chlorophyll a levels significantly reduced compared to controls (result in words)” value (chlorophyll a [2]; 0.1 μM) was “not”, the “chlorophyll a levels compared to controls (result in words)” value (chlorophyll a [2]; 1 and 0.3 μM) was “significantly reduced” and the “Numbers of Raphidiopsis brookii (result in words)” value (Raphidiopsis brookii) was “significantly and dramatically reduced”.
